Patent publication US5352665A, “Method of treating disease caused by the infection of virus” (Mitsui Toatsu Chemicals, Incorporated, priority 1987, dated 1994)
Square brackets hold non-standard residues; d marks the D form. Peptide text beside a SMILES is read from it. pGlu = O=C1CC[C@@H](C(=O)O)N1

Experiments:
REO virus type II = assay: Jerne plaque assay (anti-SRBC hemolysis plaques) in new-born NC mice infected with REO virus; format: in vivo, mouse; details: for PFC/10^6 spleen cells (number of hemolysis plaques): measured 4 days later; for therapeutic effect on immune inhibition (in words): administered together with SRBC to infected NC mice, LPS 5 μg/mouse, MDP 20 μg/mouse
Protocol: Two weeks after the infection of 10^5 PFU REO virus, sheep red blood cells (referred to hereinafter simply as SRBC) was intraperitoneally administered and 4 days after the administration, the number of hemolysis plaques was measured by way of Jerne plaque assay as a production amount of antibody-forming cells against SRBC. The number of hemolysis plaques was 15±2 per 10^6 spleen cells in a group not infected with REO virus, while that was 2.8±1.6 in an infected group, thus showing a remarkable immunity inhibitory state. In compliance with this, atrophy of thymus and decrease in the number of thymic cortex lymphocytes were observed.
On the other hand, the effective ingredient of this invention dissolved in physiological saline was administered in an amount of 10 μg/mouse simultaneously with SRBC to mice, and 4 days after the administration, the number of hemolysis plaques was measured whereupon the number was 22±5. […] In a group to which muramyl dipeptide was administered in an amount of 20 μg/mouse together with Freund incomplete adjuvant, the number of hemolysis plaques was 11±2.
Next, recovery of the immune function by immunity-enhancing substance was examined, using new-born mice infected with REO virus type II. Two weeks after the infection of the mice with the virus, sheep red blood cells were administered to the mice, and 4 days after the administration, Jerne plaque assay was carried out to measure the number of hemolysis plaques. The number was 15±2 in a group of the mice not infected and was 2.8±1.6 in a group of the infected mice. […] This recovery of the function of immune inhibition is tabulated as follows:
Mice infected with virus was immunized at the same time with SRBC and an immunostimulant, and 4 days after the immunization, the number of hemolysis plaques was measured by Jerne plaque assay.
After mice being infected with REO virus, 10 μg 1 μg or 0.1 μg of FTS was administered to the mice. After 18 days, inhibition of immunity and recovery of its function were observed by way of Jerne plaque assay.
Virus: REO virus type II, innoculation 1×10^5 PFU/mouse

[1] = Toxicity test, repeated subcutaneous administration to rats; format: in vivo, rat; details: 30 mg/kg subcutaneously for consecutive 21 days
Description: (§1) Thus, the medicament of the present invention is a safe medicament of extremely low toxicity and can be administered for a long period of time.

[2] = Toxicity test, repeated subcutaneous administration to mice; format: in vivo, mouse
Description: as §1

Molecule | PFC/10^6 spleen cells (number of hemolysis plaques) (REO virus type II; MDP 20 μg/mouse with Freund incomplete adjuvant and SRBC 2 weeks after 10^5 PFU REO virus) | PFC/10^6 spleen cells (number of hemolysis plaques) (REO virus type II; MDP 20 μg/mouse with Freund incomplete adjuvant and SRBC 2 weeks after 10^5 PFU REO virus, listed as muramyl dipeptide) | therapeutic effect on immune inhibition (in words) (REO virus type II) | abnormal symptom in external behavior observation, biochemical diagnosis of sera and pathological anatomy ([1]; rats) | toxicity ([1]; wister rats of 5 weeks old) | toxicity ([2]; 50 mg/kg and 100 mg/kg subcutaneously for consecutive 14 days, ddy male mice of 5 weeks old) | abnormal symptom by external check ([2]; 100 mg/kg subcutaneously every day for consecutive 14 days, mice) | PFC/10^6 spleen cells (number of hemolysis plaques) (REO virus type II; LPS 5 μg/mouse with SRBC 2 weeks after 10^5 PFU REO virus) | PFC/10^6 spleen cells (number of hemolysis plaques) (REO virus type II; LPS 5 μg/mouse with SRBC 2 weeks after 10^5 PFU REO virus, listed as lipopolysaccharide (LPS))
CC(=O)N[C@H]1C(O)O[C@H](CO)[C@@H](O)[C@@H]1O[C@H](C)C(=O)N[C@@H](C)C(=O)N[C@H](CCC(=O)O)C(N)=O (mixture of isomers) [MDP, muramyl dipeptide] | 11 ± 2 PFC/10^6 spleen cells | 11±2 PFC/10^6 spleen cells | showing a therapeutic effect | – | – | – | – | – | –
C[C@H](NC(=O)[C@@H]1CCC(=O)N1)C(=O)N[C@@H](CCCCN)C(=O)N[C@@H](CO)C(=O)N[C@@H](CCC(N)=O)C(=O)NCC(=O)NCC(=O)N[C@@H](CO)C(=O)N[C@@H](CC(N)=O)C(=O)O [FTS, pGlu-Ala-Lys-Ser-Gln-Gly-Gly-Ser-Asn] ([pGlu]AKSQGGSN-OH) | – | – | – | no abnormal symptom was found | No toxicity was observed | No toxicity was observed | no abnormal symptom was found | – | –
lipopolysaccharide [LPS] | – | – | no therapeutic effect | – | – | – | – | 0.3 ± 0.4 PFC/10^6 spleen cells | 0.3±0.4 PFC/10^6 spleen cells
